HELM strings list units from the 5' end as sugar, base in round brackets, then linkage (d deoxyribose, r ribose, m 2'-O-methyl, p phosphodiester). Strings are as the collection lists them, not checked against the first reports. ss, as = sense and antisense strand; [s4r] = 4'-thioribose
Further: test system not given here.

The conditions of this data set: siRNA.
In turn, “RNA1{m(U)p.r(A)p.r(C)p.r(C)p.r(G)p.r(A)p.r(G)p.r(A)p.r(A)p.r(U)p.r(G)p.r(A)p.r(G)p.r(C)p.r(C)p.r(U)p.r(G)p.r(A)p.r(U)p.r(T)p.r(T)}|RNA2{r(A)p.r(U)p.r(C)p.r(A)p.r(G)p.r(G)p.r(C)p.r(U)p.r(C)p.r(A)p.r(U)p.r(U)p.r(C)p.r(U)p.r(C)p.r(G)p.r(G)p.m(U)p.r(A)p.r(T)p.r(T)}$$$RNA1{StrandType:ss}|RNA2{StrandType:as}$” returned a target mRNA knockdown of 55%.

In turn, “RNA1{r(A)p.r(G)p.r(A)p.r(G)p.r(U)p.r(U)p.r(G)p.r(G)p.r(G)p.r(A)p.r(U)p.r(U)p.r(A)p.r(G)p.r(G)p.r(G)p.r(C)p.r(U)p.r(U)p.r(T)p.r(T)}|RNA2{m(A)p.r(A)p.m(G)p.r(C)p.m(C)p.r(C)p.m(U)p.r(A)p.m(A)p.r(U)p.m(C)p.r(C)p.m(C)p.r(A)p.m(A)p.r(C)p.m(U)p.r(C)p.m(U)p.r(T)p.r(T)}$$$RNA1{StrandType:ss}|RNA2{StrandType:as}$” registered a target mRNA knockdown of 45%.

In turn, “RNA1{r(G)p.r(A)p.m(U)p.r(A)p.r(C)p.r(U)p.r(U)p.r(C)p.r(U)p.r(G)p.r(G)p.r(U)p.r(U)p.r(C)p.r(C)p.r(C)p.r(U)p.r(C)p.r(C)p.r(T)p.r(T)}|RNA2{r(G)p.r(G)p.r(A)p.r(G)p.r(G)p.r(G)p.r(A)p.r(A)p.r(C)p.r(C)p.r(A)p.r(G)p.r(A)p.r(A)p.r(G)p.m(U)p.r(A)p.r(U)p.r(C)p.r(T)p.r(T)}$$$RNA1{StrandType:ss}|RNA2{StrandType:as}$” registered a target mRNA knockdown of 46%.

Regarding “RNA1{r(C)p.r(G)p.r(U)p.r(A)p.r(C)p.r(G)p.r(C)p.r(G)p.r(G)p.r(A)p.r(A)p.r(U)p.r(A)p.m(C)p.m(U)p.m(U)p.m(C)p.m(G)p.m(A)p.r(T)p.r(T)}|RNA2{r(U)p.r(C)p.r(G)p.r(A)p.r(A)p.r(G)p.r(U)p.r(A)p.r(U)p.r(U)p.r(C)p.r(C)p.r(G)p.r(C)p.r(G)p.r(U)p.r(A)p.r(C)p.r(G)p.r(T)p.r(T)}$$$RNA1{StrandType:ss}|RNA2{StrandType:as}$”, the target mRNA knockdown is 94.2%.

Regarding “RNA1{r(U)p.m(U)p.r(A)p.r(A)p.r(A)p.r(G)p.r(G)p.r(G)p.r(C)p.r(G)p.r(A)p.r(G)p.r(A)p.r(A)p.r(G)p.r(A)p.r(C)p.r(C)p.r(G)p.r(T)p.r(T)}|RNA2{r(C)p.r(G)p.r(G)p.r(U)p.r(C)p.r(U)p.r(U)p.r(C)p.r(U)p.r(C)p.r(G)p.r(C)p.r(C)p.r(C)p.r(U)p.r(U)p.m(U)p.r(A)p.r(A)p.r(T)p.r(T)}$$$RNA1{StrandType:ss}|RNA2{StrandType:as}$”, the target mRNA knockdown was 87%.

With “RNA1{r(G)p.r(C)p.r(G)p.r(C)p.r(U)p.r(G)p.r(C)p.r(U)p.r(G)p.r(G)p.r(U)p.r(G)p.r(C)p.r(C)p.r(A)p.r(A)p.r(C)p.r(C)p.r(C)p.d(T)p.d(T)}|RNA2{r(G)p.r(G)p.r(G)p.r(U)p.r(U)p.r(G)p.r(G)p.r(C)p.r(A)p.r(C)p.r(C)p.r(A)p.r(G)p.r(C)p.r(A)p.r(G)p.r(C)p.r(G)p.r(C)p.d(T)p.d(T)}$$$RNA1{StrandType:ss}|RNA2{StrandType:as}$”, the target mRNA knockdown came to 74%.

In turn, “RNA1{[s4r](C)p.[s4r](G)p.[s4r](U)p.[s4r](A)p.[s4r](C)p.[s4r](G)p.r(C)p.r(G)p.r(G)p.r(A)p.r(A)p.r(U)p.r(A)p.[s4r](C)p.[s4r](U)p.[s4r](U)p.[s4r](C)p.[s4r](G)p.[s4r](A)p.r(T)p.r(T)}|RNA2{r(U)p.r(C)p.r(G)p.r(A)p.r(A)p.r(G)p.r(U)p.r(A)p.r(U)p.r(U)p.r(C)p.r(C)p.r(G)p.r(C)p.r(G)p.r(U)p.r(A)p.r(C)p.r(G)p.r(T)p.r(T)}$$$RNA1{StrandType:ss}|RNA2{StrandType:as}$” returned a target mRNA knockdown of 91.5%.

Substance “RNA1{m(U)p.r(C)p.m(U)p.r(A)p.m(C)p.r(A)p.m(C)p.r(C)p.m(G)p.r(C)p.m(G)p.r(C)p.m(C)p.r(C)p.m(C)p.r(C)p.m(C)p.r(U)p.m(C)p.r(T)p.r(T)}|RNA2{r(G)p.r(A)p.r(G)p.r(G)p.r(G)p.r(G)p.r(G)p.r(G)p.r(C)p.r(G)p.r(C)p.r(G)p.r(G)p.r(U)p.r(G)p.r(U)p.r(A)p.r(G)p.r(A)p.r(T)p.r(T)}$$$RNA1{StrandType:ss}|RNA2{StrandType:as}$” displayed a target mRNA knockdown of 39%.

These data come from the OligoGym collection.
